Results as given in PMC6153520, “Proteasome inhibition and mechanism of resistance to a synthetic, library-based hexapeptide” (Investigational New Drugs, 2018).
Read-outs that look alike come from different tables or passages of the source. Where a SMILES comes first, the peptide text is derived from it. The star is where a group is joined. Cbz = O=C(OCc1ccccc1)*; NHBn = c1ccc(CN*)cc1; OBn = c1ccc(CO*)cc1; Bn = c1ccc(C*)cc1; OtBu = CC(C)(C)O*

Experiments:
[1] = system: THP1/WT; format: cell-based, human; conditions: 72 h
Method: Human monocytic/macrophage THP1 cells (ATTC, Manassas, USA) were cultured in RPMI-1640 medium supplemented with 5% fetal calf serum, 20 mM HEPES, 2 mM glutamine and 100 μg/ml penicillin/ streptomycin at 5% CO2 and 37 °C. Cell cultures were seeded at a density of 3 × 10^5 cells/ml and refreshed twice weekly. […] Some specific experiments also included THP1/BTZ100 cells that were cultured in the absence of BTZ for 6 months (further designated as THP1/BTZ (−100) cells). Mouse thymoma EL4 and human multiple myeloma H929 cells were cultured in RPMI-1640 medium supplemented with 8% fetal calf serum and 100 μg/ml penicillin/streptomycin at 5% CO2 and 37 °C.
(§1) Evaluation of drug sensitivity was carried out as described before. Cells were seeded at an initial density of 1.25 × 10^5 cells/ml in individual wells of a 24-well plate containing up to 50 μl of drug solutions. Inhibition of cell growth was determined after 72 h of incubation at 37 °C by determining the number of viable cells […] using trypan blue exclusion. The drug concentration required to inhibit cell growth by 50% compared to untreated controls was defined as the IC50.

[2] = system: proteasome β-subunits; test: Proteasome affinity labelling and recovery in H929 cells; format: cell-based, human; conditions: 5 μM MG132 (1 h) or 20 nM bortezomib (1 h)
[3] = system: THP1/WT cells; test: Western blot, accumulation of ubiquitinated proteins; format: cell-based, human; conditions: 24 h exposure
Method: Western blot analysis to determine protein levels of (i) β1, β2 and β5 proteasome subunits and (ii) the accumulation of ubiquitinated proteins after treatment with 4A6 was performed essentially as described previously. Cells were harvested in the mid-log phase of growth and washed 3 times with ice-cold buffered saline pH 7.4. Total cell lysates of 5 × 10^6 cells were prepared by resuspension in 500 μl lysis buffer containing: 50 mM Tris-HCl (pH 7.6), 5 mM dithiotreitol, 20 μl PIC (Protease Inhibitor Cocktail; 1 tablet/ml H2O), 20% glycerol and 0.5% NP-40. The suspension was sonicated (MSE sonicator, amplitude 7, for 3 × 5 s with 20 s time intervals at 4 °C) and centrifuged in an Eppendorf micro centrifuge (5 min, 12,000 rpm, 4 °C). Protein content of the supernatant was determined by the Bio-Rad protein assay. 20–30 μg of total cell lysates were fractionated on a 10% polyacrylamide gel containing SDS and transferred onto a PVDF membrane. The membranes were pre-incubated overnight at 4 °C in blocking buffer (5% Bio-Rad Blocker in TBS-T; 10 mM Tris-HCl, pH 8.0, 0.15 M NaCl, 0.1% Tween-20) to prevent non-specific antibody binding. After blocking, the membranes were incubated for 1 h at room temperature with primary antibodies for proteasome subunit β1 (1:1000, PW8140), β2 (1:1000, PW8145) and β5 (1:1000, PW8895) or ubiquitin (1:1000, Santa-Cruz, SC-8017). An antibody to α-tubulin was used (1:1000, Santa Cruz, sc-8035) to check and normalize for any loading differences. After 3 washing steps with TBS-T, the membranes were incubated for 1 h with HRP-labelled donkey-anti-rabbit (1:6000, Amersham, UK) or goat-anti-mouse (1:6000, Dako, Glostrup, Denmark) as secondary antibody. Detection of antibody binding was followed by chemoluminescence using Supersignal (Pierce Biotechnology, Rockford, USA) according to the manufacturers’ instructions. […] The signal intensity was determined densitometrically using Quantity One software (Bio-Rad) and was expressed relative to the intensity of the α-tubulin signal.

[4] = system: THP1 cells; test: Growth inhibition with or without Ruthenium Red; format: cell-based, human; conditions: 72 h, with or without 25 μM Ruthenium Red
Method: as §1

[5] = system: NCI60 tumor cell line panel; test: NCI60 panel COMPARE analysis; format: cell-based, human; conditions: mean log10GI50, 2 days of drug exposure
[6] = system: CCRF-CEM; test: NCI60 tumor cell line screen; format: cell-based; conditions: Homo sapiens, Leukemia, 48 h drug exposure, read-out: LOG10 GI50
[7] = system: K-562; test: NCI60 tumor cell line screen; format: cell-based; conditions: Homo sapiens, K562, Leukemia, 48 h drug exposure, read-out: LOG10 GI50 (converted)
[8] = system: A549/ATCC; test: NCI60 tumor cell line screen; format: cell-based; conditions: Homo sapiens, NSC Lung, 48 h drug exposure, read-out: LOG10 GI50 (converted)
[9] = system: NCI-H226; test: NCI60 tumor cell line screen; format: cell-based; conditions: Homo sapiens, NSC Lung, 48 h drug exposure, read-out: LOG10 GI50 (converted)
[10] = system: COLO 205; test: NCI60 tumor cell line screen; format: cell-based; conditions: Homo sapiens, Colon, 48 h drug exposure, read-out: LOG10 GI50 (converted)
[11] = system: HT29; test: NCI60 tumor cell line screen; format: cell-based; conditions: Homo sapiens, HT-29, Colon, 48 h drug exposure, read-out: LOG10 GI50 (converted)
[12] = system: SNB-19; test: NCI60 tumor cell line screen; format: cell-based; conditions: Homo sapiens, CNS, 48 h drug exposure, read-out: LOG10 GI50 (converted)
[13] = system: SNB-75; test: NCI60 tumor cell line screen; format: cell-based; conditions: Homo sapiens, CNS, 48 h drug exposure, read-out: LOG10 GI50 (converted)
[14] = system: SK-MEL-5; test: NCI60 tumor cell line screen; format: cell-based; conditions: Homo sapiens, Melanoma, 48 h drug exposure, read-out: LOG10 GI50 (converted)
[15] = system: SK-OV-3; test: NCI60 tumor cell line screen; format: cell-based; conditions: Homo sapiens, Ovarian, 48 h drug exposure, read-out: LOG10 GI50 (converted)
[16] = system: DU-145; test: NCI60 tumor cell line screen; format: cell-based; conditions: Homo sapiens, Prostate, 48 h drug exposure, read-out: LOG10 GI50 (converted)
[17] = system: HS 578T; test: NCI60 tumor cell line screen; format: cell-based; conditions: Homo sapiens, Breast, 48 h drug exposure, read-out: LOG10 GI50 (converted)
[18] = system: THP1/WT; parameters: method as in Oerlemans et al. [46]; conditions: ref Oerlemans et al. [46], cited from earlier work
[19] = system: β5 subunit of the proteasome; parameters: method as in PMID 16286248, PMID 16455650; conditions: ref [15], [21]; read-out: IC50, proteasome inhibition; cited from earlier work
[20] = system: THP1/BTZ50; conditions: relative to THP1/WT; ref Oerlemans et al. [46]; cited from earlier work
[21] = system: THP1/BTZ100; conditions: relative to THP1/WT; ref Oerlemans et al. [46]; cited from earlier work
[22] = system: THP1/BTZ200; conditions: relative to THP1/WT; ref Oerlemans et al. [46]; cited from earlier work
[23] = target: T1, chymotrypsin-like proteasome activity (Homo sapiens, UniProt P28074); test: Proteasome-Glo cell-based assay in intact THP1 cells; conditions: 1 h exposure, mean of 3 experiments ± S.D., read-out: IC50, inhibition of chymotrypsin-like proteasome activity
T1 construct: chymotrypsin-like proteasome activity in intact THP1 cells after 1 h exposure; endogenous in cells; host or cells: THP1 (wild type)

[24] = system: proteasome; test: Proteasome inhibitory effect of cleavage product (data not shown)
[25] = Cell growth inhibitory potential of cleavage product (data not shown); format: cell-based
[26] = system: THP1/BTZ200 cells; test: Apoptosis assay (Annexin-V/7-AAD flow cytometry); format: cell-based, human; conditions: 24 h, 4A6 over 0–25 μM
Method: (§2) Induction of apoptosis was analyzed by flow cytometry using APOPTEST™-FITC A700 (VPS Diagnostics, Hoeven, the Netherlands) according to the instructions of the manufacturer. In short, induction of apoptosis was determined after 24 h’ drug exposure. One million cells were harvested and washed 3 times with ice-cold PBS. The cell pellet was incubated for 30 min with 7-Amino-actinomycin D (7-AAD) on ice followed by incubation with Annexin-V according to the instructions of the manufacturer. Annexin-V (early apoptosis) and 7-AAD (late apoptosis) staining was measured by flow cytometry (Beckton & Dickinson, FACScalibur) and analysed using FCSexpress V3 software (Denovo software, Thornhill, Canada).

[27] = system: THP1/WT cells; test: Apoptosis assay (Annexin-V/7-AAD flow cytometry); format: cell-based, human; conditions: 24 h exposure
Method: as §2

Compound: CC(=O)N[C@H](C(=O)N[C@@H](CCC(=O)OC(C)(C)C)C(=O)N[C@@H](CCC(=O)OCc1ccccc1)C(=O)N[C@@H](CC(=O)OC(C)(C)C)C(=O)N[C@@H](CCC(=O)OC(C)(C)C)C(=O)NCC(=O)NCc1ccccc1)[C@@H](C)OCc1ccccc1 [4E11, Ac-Thr(OBzl)-Glu(OtBu)-Glu(OBzl)-Asp(OtBu)-Glu(OtBu)-Gly-Bza] (Ac-T(Bn)E(OtBu)E(OBn)D(OtBu)E(OtBu)G-NHBn)
- IC50 [1]: 3900 ± 800 nM

Compound: CC(C)C[C@H](NC(=O)[C@H](Cc1ccccc1)NC(=O)c1cnccn1)B(O)O [Bortezomib, Pyrazylcarbonyl-Phe-Leu-boronate]
- inhibition of β-subunit activity probing [2]: predominantly inhibited β5-subunit probing
- accumulation of ubiquitinated proteins [3]: marked accumulation of ubiquitinated proteins
- effect of Ruthenium Red on growth inhibitory activity (protection) [4]: marked abrogation
- orders of magnitude more potent than 4A6 [5]: 2–3 orders of magnitude
- GI50 [6]: 0.1 nM
- GI50 [7]: 0.422 nM
- GI50 [8]: 2.44 nM
- GI50 [9]: 0.105 nM
- GI50 [10]: 0.363 nM
- GI50 [11]: 0.389 nM
- GI50 [12]: 0.724 nM
- GI50 [13]: 1.95 nM
- GI50 [14]: 0.11 nM
- GI50 [15]: 32.9 nM
- GI50 [16]: 0.891 nM
- GI50 [17]: 0.422 nM
- IC50 ([18]; growth inhibition): 0.0033 ± 0.0006 µM
- [Resistance Factor] THP1/WT ([18]; reference value in square brackets): 1
- IC50 [19]: 3 to 5 nM
- [Resistance Factor] THP1/BTZ50 [20]: 45
- [Resistance Factor] THP1/BTZ100 [21]: 79
- [Resistance Factor] THP1/BTZ200 [22]: 129

Compound: 4A6-dimer: dimer form of 4A6, contains the same amino acid sequence as 4A6 (THTXEG; The dimer linkage, and any protecti)
- IC50 [23]: 490 ± 120 nM

Compound: CC(C)C[C@@H](C=O)NC(=O)[C@H](CC(C)C)NC(=O)[C@H](CC(C)C)NC(=O)OCc1ccccc1 [MG132, Z-Leu-Leu-Leucinal] (Cbz-Leu-Leu-Leu-aldehyde)
- inhibition of β-subunit activity probing [2]: blocked activity probing of all β-subunits

Compound: Ac-Thr(tBu)-His(Bzl)-Thr(Bzl)-Nle-OH
- proteasome inhibitory effect [24]: did not show any proteasome inhibitory effect
- cell growth inhibitory potential [25]: did not show any proteasome inhibitory effect or cell growth inhibitory potential

Compound: COc1cc([C@@H]2c3cc4c(cc3[C@@H](O[C@@H]3O[C@@H]5CO[C@@H](C)O[C@H]5[C@H](O)[C@H]3O)[C@H]3COC(=O)[C@H]23)OCO4)cc(OC)c1O [etoposide, reference compound]
- induction of apoptosis [26]: equally effective in inducing apoptosis
- induction of apoptosis [27]: equally effective in inducing apoptosis
